Data on four compounds can be found in US20040019088A1, “Use of Epothilones in the treatment of brain diseases associated with proliferative processes” (Schering AG, priority 2002, published 2004).

Data set [1] can be described thus: Mouse bolus injection assay (blood and brain levels of Epothilones). The following applies: for Brain plasma ratio: after 20 min, iv application; for concentration at 10 min / concentration at 20 min / concentration at 40 min / AUC(0-t) / Kp: male, SCID, mouse, in vivo, 5 mg/kg; for AUC(0-t) / Kp: iv. Here is the method: Mouse Bolus Injection Assay
(In Vivo Assay for the Evaluation of Blood and Brain Levels of Epothilones)
Male SCID mice (20-25 g, non-leaky) were treated with a single dose of tritium-labeled Epothilones and paclitaxel (5 mg/kg; 7.4 MBq/mg; in 30% Hydroxypropyl-β-cyclodextrin (HPβCD)/NaCl iv bolus injection). Partitioning of radioactivity between blood and brain was measured by liquid scintillation counting (LSC) and HPLC-radioflow at three time points (10, 20 and 40 min) after injection.

Data set [2] is described as follows: Tolerability (deaths, body weight change) in the U373 glioma study. In kind it is in vivo, NMRI nu/nu-mice. Conditions: for BWC d 7-17 (Body Weight Change) / Deaths/total (d): NMRI nu/nu-mice. Here is the method:
(§1) Female NMRI nu/nu-mice (20-28 g) were used for this experiment. Human U373 glioma cells were implanted s.c. (1×10^7/mouse) as well as i.cer. (2×10^5/mouse) on day 0. Treatment was started on day 7 when the s.c. tumors were approximately 0,05 cm^3 in size. […] After termination of the experiment, the size of the brain tumors was determined (Table 2).

Another data set has as its system Human U373 glioma cells. Nature of the data set: In vivo efficacy against xenografted (s.c.) and intracerebral human glioma. Conditions: for i. cer. Brain Tumor Volume d 32: i.cer. U373 in NMRI nu/nu-mice; for RTV s.c. Tumors d 25 (Relative Tumor Volume): s.c. U373 in NMRI nu/nu-mice. Here is the method: In vivo assay for the evaluation of efficacy of Epothilones against xenografted and intracerebral human glioma.
as §1
A general note: In xenograft studies the graft and the host belong to different species.

For data set [3] the following is noted: in vivo; cited from earlier work.
Setting [4] is: 5 mg/kg iv bolus, 3H-labeled, male SCID mice.
Where [5] appears, read: 10 min after 5 mg/kg iv bolus, 3H-labeled, male SCID mice.
[6] abbreviates: 20 min after 5 mg/kg iv bolus, 3H-labeled, male SCID mice.
[7] abbreviates: 40 min after 5 mg/kg iv bolus, 3H-labeled, male SCID mice.
[8] abbreviates: Group B: 9 mg/kg i.v., days 7, 14.
Setting [9] is: Group C: 2 mg/kg i.v., days 7, 9, 11, 14, 16, 18.
[10] abbreviates: both schedules (groups B and C) vs. untreated control.

Values joined by “and” are separate entries in the source; they are usually repeats but may differ in a detail not shown here. Identical values can stand only once. Marks after values point to notes of the source that are not given here.

By AUC(0-t) is commonly meant exposure summed from dosing to a finite time, without extrapolation to infinity. The low end stands for low exposure, the high end for high exposure. The Kp is the ratio of the level in a tissue or fluid to that in plasma or blood. Take `CCCC1C(=O)C(C)(C)C(O)CC(=O)OC(C(C)=Cc2csc(C)n2)CC=C(C)CCCC(C)C1O` (stereo not drawn) [Compound 1, 4,8-dihydroxy-16-(1-methyl-2-(2-methyl-4-thiazolyl)-ethenyl)-1-oxa-7-(1-propyl)-5,5,9,13-tetramethyl-cyclohexadec-13-ene-2,6-dione]: the “Brain AUC (0-40 min)” value in data set [1] (setting [4]) stood at 21 µg·min/mL. In addition, in data set [1], the Brain plasma ratio result was “higher brain plasma ratio”; the concentration at 10 min is 800 ng/mL and 300 ng/g; the concentration at 20 min was 600 ng/mL and 800 ng/g; the concentration at 40 min is 300 ng/mL and 600 ng/g. In data set [1], the area under the curve AUC(0-t) is 333 ng·h/mL and the Kp was determined as 1.

In the case of `CCCC1C(=O)C(C)(C)C(O)CC(=O)OC(C(C)=Cc2csc(C)n2)CC2OC2(C)CCCC(C)C1O` (stereo not drawn) [Compound 2], in data set [1] (setting [4]), the “Brain AUC (0-40 min)” value amounted to 35 µg·min/mL and the “Plasma AUC (0-40 min)” value is 31 µg·min/mL. In data set [1] (setting [5]), the Brain conc. mean amounted to 1.1 µg/g and the Plasma conc. mean stood at 1.6 µg/mL. Further, in data set [1] (setting [6]), the Brain conc. mean stood at 1.1 µg/g and the Plasma conc. mean came to 0.7 µg/mL. In data set [1] (setting [7]), the Brain conc. mean was found to be 0.8 µg/g and the Plasma conc. mean came to 0.3 µg/mL. Further, the Brain plasma ratio entry in data set [1] was “higher brain plasma ratio”. The “AUC Ratio Brain/Plasma” value in data set [1] (partial AUC 0-40 min, 5 mg/kg iv bolus, male SCID mice) came out at 1.2.

For the compound `C=CCC1C(=O)C(C)(C)C(O)CC(=O)OC(c2ccc3sc(C)nc3c2)CC2OC2(C)CCCC(C)C1O` (stereo not drawn) [Compound 3, 7,11-dihydroxy-3-(2-methylbenzothiazol-5-yl)-10-(prop-2-en-1-yl)-8,8,12,16-tetramethyl-4,17-dioxabicyclo[14.1.0]heptadecane-5,9-dione], in data set [2] (setting [8]), the “BWC d 7-17 (Body Weight Change)” value is −7% and the “Deaths/total (d)” value is given as 0/10. For the same compound, in data set [2] (setting [9]), the “BWC d 7-17 (Body Weight Change)” value is −3% and the “Deaths/total (d)” value is reported as 1/10. Besides, the Body weight loss result in data set [2] (treatment groups B and C) was “Only a moderate body weight loss (not significant)”. Further, in data set [1] (setting [4]), the “Brain AUC (0-40 min)” value is 20 µg·min/mL. In data set [1], the concentration at 10 min is 1200 ng/mL and 900 ng/g; the concentration at 20 min was 700 ng/mL and 300 ng/g; the concentration at 40 min is 300 ng/mL and 600 ng/g; the AUC(0-t) is 417 ng·h/mL. For the same compound, the partition ratio (Kp) in data set [1] was found to be 0.8. In addition, in the data set on Human U373 glioma cells (setting [8]), the “i. cer. Brain Tumor Volume d 32” value is listed as 0.002* mm^3 and the “RTV s.c. Tumors d 25 (Relative Tumor Volume)” value worked out at 1.15. For the same compound, in the data set on Human U373 glioma cells (setting [9]), the “i. cer. Brain Tumor Volume d 32” value is recorded as 0.96 mm^3 and the “RTV s.c. Tumors d 25 (Relative Tumor Volume)” value was determined as 1.40. Also, in the data set with Human U373 glioma cells (setting [10]), the “Therapeutic effect on i.cer. U373 brain tumors” value is recorded as “significant therapeutic effect” and the “Therapeutic effect on s.c. U373 tumors” value is reported as “significant therapeutic effect”.

`CC(=O)O[C@H]1C(=O)[C@@]2(C)[C@H]([C@H](OC(=O)c3ccccc3)[C@]3(O)C[C@H](OC(=O)[C@H](O)[C@@H](NC(=O)c4ccccc4)c4ccccc4)C(C)=C1C3(C)C)[C@]1(OC(C)=O)CO[C@@H]1C[C@@H]2O` [Paclitaxel, reference compound]: the “Ability to penetrate the BBB” value in data set [3] is on record as “only low ability to penetrate the BBB”. For the same compound, the “Brain AUC (0-40 min)” value in data set [1] (setting [4]) is 0 µg·min/mL. For the same compound, the Brain conc. mean result in data set [1] (setting [5]) is “<LOQ”. Moreover, in data set [1] (setting [6]), the Brain conc. mean result is “<LOQ”. Also, the Brain conc. mean entry in data set [1] (setting [7]) is on record as “<LOQ”. Besides, the “Detection in the brain” value in data set [1] (40 minutes after application) is “detected in the brain in considerable amounts”. Besides, the “Concentration in brain samples” value in data set [1] (all brain samples (10, 20, 40 min)) was “below the limit of quantitation”. In data set [1], this compound gave a concentration at 10 min of 800 ng/mL, a concentration at 20 min of 600 ng/mL, a concentration at 40 min of 200 ng/mL and an AUC(0-t) of 317 ng·h/mL.
